Source: patent US20180042943A1, “METHODS FOR MODULATING BONE DENSITY” (Intercept Pharmaceuticals, Inc., priority 2015, published 2018)
Entries after “also recorded” stand apart in the source; their conditions may differ.

How the values were obtained:
[1] = DEXA scan of the lumbar spine (T-score, Z-score, BMD) in PBC subjects, 12 months OCA or placebo; format: in vivo, human; conditions: for Lumbar Spine Scan: Bone Mineral Density, Change From Baseline, Mean / Lumbar Spine Scan: Bone Mineral Density, Change From Baseline, Median / Lumbar Spine Scan: Bone Mineral Density, Result, Mean / Lumbar Spine Scan: Bone Mineral Density, Result, Median / Lumbar Spine Scan: T-Score, Change From Baseline, Mean / Lumbar Spine Scan: T-Score, Change From Baseline, Median / Lumbar Spine Scan: T-Score, Result, Mean / Lumbar Spine Scan: T-Score, Result, Median / Lumbar Spine Scan: Z-Score, Change From Baseline, Mean / Lumbar Spine Scan: Z-Score, Change From Baseline, Median / Lumbar Spine Scan: Z-Score, Result, Mean / Lumbar Spine Scan: Z-Score, Result, Median / Lumbar Spine Scan: Bone Mineral Density, Change From Baseline, LS Mean / Lumbar Spine Scan: Bone Mineral Density, Change From Baseline, OCA - Placebo mean difference / Lumbar Spine Scan: T-Score, Change From Baseline, LS Mean / Lumbar Spine Scan: T-Score, Change From Baseline, OCA - Placebo mean difference / Lumbar Spine Scan: Z-Score, Change From Baseline, LS Mean / Lumbar Spine Scan: Z-Score, Change From Baseline, OCA - Placebo mean difference: orally once daily, DB Month 12, subjects with PBC; for Lumbar Spine Scan: Bone Mineral Density, Change From Baseline, LS Mean / Lumbar Spine Scan: Bone Mineral Density, Change From Baseline, OCA - Placebo mean difference / Lumbar Spine Scan: T-Score, Change From Baseline, LS Mean / Lumbar Spine Scan: T-Score, Change From Baseline, OCA - Placebo mean difference / Lumbar Spine Scan: Z-Score, Change From Baseline, LS Mean / Lumbar Spine Scan: Z-Score, Change From Baseline, OCA - Placebo mean difference: ANCOVA
Procedure: (§1) PBC patients are randomized to three groups: (a) placebo (PCB), (b) 10 mg OCA, or (c) 5 mg (month 0-6) titrating to 10 mg (month 7-12) OCA. Study medication is administered orally, once daily for 12 months. For patients under pretreatment ursodeoxycholic acid (UDCA) treatment, the pre-treatment dose of UDCA is continued throughout their treatment. Bone density is measured by DEXA scans. DEXA scans of the lumbar spine and femoral neck are conducted at Day 0 and Month 12. Additional measurement may be conducted after Month 12 (e.g., annually after Month 12) as necessary and appropriate. The timing of the DEXA scans is not critical, and may be conducted±2 weeks. […] Subjects with PBC±UDCA (if taking UDCA, patients were maintained on a stable dose) with ALP≧1.67×ULN or bilirubin<2×ULN were randomized to placebo (PBO), OCA 5 or 10 mg for 12 months. Subjects on 5 mg were titrated to 10 mg after 6 months (OCA Titration) based on clinical response and tolerability. Dual-emission X-ray absorptiometry (DEXA) scan was used to assess BMD in a subset of subjects prior to and following 12 months of OCA or placebo treatment. Changes from baseline at Month 12 were analyzed using an ANCOVA model with baseline values as a covariate. Osteopenia and osteoporosis were based on WHO thresholds: T score −1.0 to ≦−2.5 […].

[2] = DEXA scan of the femoral neck (T-score, Z-score, BMD) in PBC subjects, 12 months OCA or placebo; format: in vivo, human; conditions: for Femoral Neck Scan: Bone Mineral Density, Change From Baseline, Mean / Femoral Neck Scan: Bone Mineral Density, Change From Baseline, Median / Femoral Neck Scan: Bone Mineral Density, Result, Mean / Femoral Neck Scan: Bone Mineral Density, Result, Median / Femoral Neck Scan: T-Score, Change From Baseline, Mean / Femoral Neck Scan: T-Score, Change From Baseline, Median / Femoral Neck Scan: T-Score, Result, Mean / Femoral Neck Scan: T-Score, Result, Median / Femoral Neck Scan: Z-Score, Change From Baseline, Mean / Femoral Neck Scan: Z-Score, Change From Baseline, Median / Femoral Neck Scan: Z-Score, Result, Mean / Femoral Neck Scan: Z-Score, Result, Median / Femoral Neck Scan: Bone Mineral Density, Change From Baseline, LS Mean / Femoral Neck Scan: Bone Mineral Density, Change From Baseline, OCA - Placebo mean difference / Femoral Neck Scan: T-Score, Change From Baseline, LS Mean / Femoral Neck Scan: T-Score, Change From Baseline, OCA - Placebo mean difference / Femoral Neck Scan: Z-Score, Change From Baseline, LS Mean / Femoral Neck Scan: Z-Score, Change From Baseline, OCA - Placebo mean difference: orally once daily, DB Month 12, subjects with PBC; for Femoral Neck Scan: Bone Mineral Density, Change From Baseline, LS Mean / Femoral Neck Scan: Bone Mineral Density, Change From Baseline, OCA - Placebo mean difference / Femoral Neck Scan: T-Score, Change From Baseline, LS Mean / Femoral Neck Scan: T-Score, Change From Baseline, OCA - Placebo mean difference / Femoral Neck Scan: Z-Score, Change From Baseline, LS Mean / Femoral Neck Scan: Z-Score, Change From Baseline, OCA - Placebo mean difference: ANCOVA
Procedure: as §1

[3] = Titration OCA (5 mg, titrated to 10 mg after 6 months)

Structure (SMILES): CC[C@H]1[C@@H](O)[C@@H]2[C@H](CC[C@]3(C)[C@@H]([C@H](C)CCC(=O)O)CC[C@@H]23)[C@@]2(C)CC[C@@H](O)C[C@@H]12 [OCA, 3α,7α-dihydroxy-6α-ethyl-5β-cholan-24-oic acid]
- Lumbar Spine Scan: Bone Mineral Density, Change From Baseline, Mean ([1]; 10 mg OCA): −0.012 g/cm^2
- Lumbar Spine Scan: Bone Mineral Density, Change From Baseline, Median ([1]; 10 mg OCA): −0.013 g/cm^2
- Lumbar Spine Scan: Bone Mineral Density, Result, Mean ([1]; 10 mg OCA): 1.003 g/cm^2
- Lumbar Spine Scan: Bone Mineral Density, Result, Median ([1]; 10 mg OCA): 0.976 g/cm^2
- Lumbar Spine Scan: T-Score, Change From Baseline, Mean ([1]; 10 mg OCA): −0.17
- Lumbar Spine Scan: T-Score, Change From Baseline, Median ([1]; 10 mg OCA): −0.10
- Lumbar Spine Scan: T-Score, Result, Mean ([1]; 10 mg OCA): −1.02
- Lumbar Spine Scan: T-Score, Result, Median ([1]; 10 mg OCA): −1.20
- Lumbar Spine Scan: Z-Score, Change From Baseline, Mean ([1]; 10 mg OCA): −0.03
- Lumbar Spine Scan: Z-Score, Change From Baseline, Median ([1]; 10 mg OCA): 0.00
- Lumbar Spine Scan: Z-Score, Result, Mean ([1]; 10 mg OCA): 0.01
- Lumbar Spine Scan: Z-Score, Result, Median ([1]; 10 mg OCA): 0.00
- Lumbar Spine Scan: Bone Mineral Density, Change From Baseline, LS Mean ([1]; 10 mg OCA): −0.01 g/cm^2
- Lumbar Spine Scan: Bone Mineral Density, Change From Baseline, OCA - Placebo mean difference ([1]; 10 mg OCA): 0.00 g/cm^2
- Lumbar Spine Scan: T-Score, Change From Baseline, LS Mean ([1]; 10 mg OCA): −0.09
- Lumbar Spine Scan: T-Score, Change From Baseline, OCA - Placebo mean difference ([1]; 10 mg OCA): 0.16
- Lumbar Spine Scan: Z-Score, Change From Baseline, LS Mean ([1]; 10 mg OCA): −0.03
- Lumbar Spine Scan: Z-Score, Change From Baseline, OCA - Placebo mean difference ([1]; 10 mg OCA): −0.05
- Lumbar Spine Scan: Bone Mineral Density, Change From Baseline, Mean [1, 3]: −0.014 g/cm^2
- Lumbar Spine Scan: Bone Mineral Density, Change From Baseline, Median [1, 3]: −0.007 g/cm^2
- Lumbar Spine Scan: Bone Mineral Density, Result, Mean [1, 3]: 1.013 g/cm^2
- Lumbar Spine Scan: Bone Mineral Density, Result, Median [1, 3]: 0.994 g/cm^2
- Lumbar Spine Scan: T-Score, Change From Baseline, Mean [1, 3]: −0.06
- Lumbar Spine Scan: T-Score, Change From Baseline, Median [1, 3]: 0.00
- Lumbar Spine Scan: T-Score, Result, Mean [1, 3]: −1.10
- Lumbar Spine Scan: T-Score, Result, Median [1, 3]: −1.35
- Lumbar Spine Scan: Z-Score, Change From Baseline, Mean [1, 3]: 0.00
- Lumbar Spine Scan: Z-Score, Change From Baseline, Median [1, 3]: 0.00
- Lumbar Spine Scan: Z-Score, Result, Mean [1, 3]: 0.02
- Lumbar Spine Scan: Z-Score, Result, Median [1, 3]: −0.20
- Lumbar Spine Scan: Bone Mineral Density, Change From Baseline, LS Mean [1, 3]: −0.01 g/cm^2
- Lumbar Spine Scan: Bone Mineral Density, Change From Baseline, OCA - Placebo mean difference [1, 3]: −0.01 g/cm^2
- Lumbar Spine Scan: T-Score, Change From Baseline, LS Mean [1, 3]: −0.01
- Lumbar Spine Scan: T-Score, Change From Baseline, OCA - Placebo mean difference [1, 3]: 0.25
- Lumbar Spine Scan: Z-Score, Change From Baseline, LS Mean [1, 3]: 0.00
- Lumbar Spine Scan: Z-Score, Change From Baseline, OCA - Placebo mean difference [1, 3]: −0.01
- Lumbar bone mineral density change, OCA groups versus placebo ([1]; both OCA groups, Baseline to Month 12, subjects with PBC): No significant difference; also recorded: not significant
- Femoral Neck Scan: Bone Mineral Density, Change From Baseline, Mean ([2]; 10 mg OCA): −0.034 g/cm^2
- Femoral Neck Scan: Bone Mineral Density, Change From Baseline, Median ([2]; 10 mg OCA): −0.018 g/cm^2
- Femoral Neck Scan: Bone Mineral Density, Result, Mean ([2]; 10 mg OCA): 0.813 g/cm^2
- Femoral Neck Scan: Bone Mineral Density, Result, Median ([2]; 10 mg OCA): 0.779 g/cm^2
- Femoral Neck Scan: T-Score, Change From Baseline, Mean ([2]; 10 mg OCA): −0.11
- Femoral Neck Scan: T-Score, Change From Baseline, Median ([2]; 10 mg OCA): −0.10
- Femoral Neck Scan: T-Score, Result, Mean ([2]; 10 mg OCA): −1.06
- Femoral Neck Scan: T-Score, Result, Median ([2]; 10 mg OCA): −1.05
- Femoral Neck Scan: Z-Score, Change From Baseline, Mean ([2]; 10 mg OCA): −0.06
- Femoral Neck Scan: Z-Score, Change From Baseline, Median ([2]; 10 mg OCA): 0.00
- Femoral Neck Scan: Z-Score, Result, Mean ([2]; 10 mg OCA): −0.01
- Femoral Neck Scan: Z-Score, Result, Median ([2]; 10 mg OCA): −0.10
- Femoral Neck Scan: Bone Mineral Density, Change From Baseline, LS Mean ([2]; 10 mg OCA): −0.04 g/cm^2
- Femoral Neck Scan: Bone Mineral Density, Change From Baseline, OCA - Placebo mean difference ([2]; 10 mg OCA): −0.02 g/cm^2
- Femoral Neck Scan: T-Score, Change From Baseline, LS Mean ([2]; 10 mg OCA): −0.07
- Femoral Neck Scan: T-Score, Change From Baseline, OCA - Placebo mean difference ([2]; 10 mg OCA): 0.26
- Femoral Neck Scan: Z-Score, Change From Baseline, LS Mean ([2]; 10 mg OCA): −0.07
- Femoral Neck Scan: Z-Score, Change From Baseline, OCA - Placebo mean difference ([2]; 10 mg OCA): 0.05
- Femoral Neck Scan: Bone Mineral Density, Change From Baseline, Mean [2, 3]: −0.003 g/cm^2
- Femoral Neck Scan: Bone Mineral Density, Change From Baseline, Median [2, 3]: −0.004 g/cm^2
- Femoral Neck Scan: Bone Mineral Density, Result, Mean [2, 3]: 0.809 g/cm^2
- Femoral Neck Scan: Bone Mineral Density, Result, Median [2, 3]: 0.822 g/cm^2
- Femoral Neck Scan: T-Score, Change From Baseline, Mean [2, 3]: −0.03
- Femoral Neck Scan: T-Score, Change From Baseline, Median [2, 3]: −0.05
- Femoral Neck Scan: T-Score, Result, Mean [2, 3]: −1.28
- Femoral Neck Scan: T-Score, Result, Median [2, 3]: −1.45
- Femoral Neck Scan: Z-Score, Change From Baseline, Mean [2, 3]: 0.01
- Femoral Neck Scan: Z-Score, Change From Baseline, Median [2, 3]: 0.00
- Femoral Neck Scan: Z-Score, Result, Mean [2, 3]: −0.23
- Femoral Neck Scan: Z-Score, Result, Median [2, 3]: −0.45
- Femoral Neck Scan: Bone Mineral Density, Change From Baseline, LS Mean [2, 3]: −0.01 g/cm^2
- Femoral Neck Scan: Bone Mineral Density, Change From Baseline, OCA - Placebo mean difference [2, 3]: 0.01 g/cm^2
- Femoral Neck Scan: T-Score, Change From Baseline, LS Mean [2, 3]: −0.06
- Femoral Neck Scan: T-Score, Change From Baseline, OCA - Placebo mean difference [2, 3]: 0.27
- Femoral Neck Scan: Z-Score, Change From Baseline, LS Mean [2, 3]: −0.01
- Femoral Neck Scan: Z-Score, Change From Baseline, OCA - Placebo mean difference [2, 3]: 0.10
- decrease in femoral bone mineral density T-score versus placebo ([2]; both OCA groups, Baseline to Month 12, subjects with PBC, p<0.05): smaller decrease
